# Laboratory results from patent publication US20220251116A1, “ALKYLBORONIC ACIDS AS ARGINASE INHIBITORS” (Guangdong Newopp Biopharmaceuticals Co., Ltd., priority 2019, published 2022).
# Where a name gives a salt, the structure may show the parent alone.
# Biological target: T1, recombinant human arginase 1 (Homo sapiens, UniProt P05089)
# T1 sequence (P05089 1-322): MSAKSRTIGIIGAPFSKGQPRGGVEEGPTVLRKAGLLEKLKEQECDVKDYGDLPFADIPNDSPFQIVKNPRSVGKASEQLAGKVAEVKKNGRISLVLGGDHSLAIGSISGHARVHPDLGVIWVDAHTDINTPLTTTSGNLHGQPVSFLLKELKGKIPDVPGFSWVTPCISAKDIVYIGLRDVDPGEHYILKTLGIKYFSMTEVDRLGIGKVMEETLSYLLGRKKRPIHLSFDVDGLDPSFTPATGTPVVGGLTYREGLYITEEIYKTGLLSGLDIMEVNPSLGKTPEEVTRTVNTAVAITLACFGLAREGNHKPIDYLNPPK
# Assay: Arginase inhibitory activity test, enzymatic assay based on urea measurement (Arg 1);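 note: enzyme incubated with L-arginine substrate and compound at 37 °C for 120 min, urea product detected colorimetrically by absorbance at 450 nm, background from wells lacking enzyme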
# Protocol: An enzymatic assay with recombinant human arginases 1 or 2 was used to measure inhibitory activity of the compounds. The assay is based on urea measurement, which is a product of L-arginine enzymatic degradation.
# Briefly, arginase and the substrate solution containing L-arginine were incubated in the absence or presence of varying concentrations of compounds at 37° C. for 120 min. For the background correction, only the substrate solution was added without arginase. The urea detection reagent from QuantiChrome™ Urea assay kit (BioAssay Systems, CA) was added to develop the color product. After 60 min at room temperature, the absorbance was measured at 450 nm with CLARIOstar (BMG LABTECH). Urea was used as the standard.
row,SMILES,IC50
1,"CN(C)CCN(C)S(=O)(=O)N1C[C@H](CCCB(O)O)[C@](N)(C(=O)O)C1 (racemic) [Example 45, (racemic)-trans-3-amino-4-(3-boronopropyl)-1-(N-(2-(dimethylamino)ethyl)-N-methylsulfamoyl)pyrrolidine-3-carboxylic acid, 2,2,2-trifluoroacetic acid salt (1:2)]",100 to 1000 nM
2,"CNCCNS(=O)(=O)N1C[C@H](CCCB(O)O)[C@](N)(C(=O)O)C1 (racemic) [Example 46, (racemic)-trans-3-amino-4-(3-boronopropyl)-1-(N-(2-(methylamino)ethyl)sulfamoyl)pyrrolidine-3-carboxylic acid, 2,2,2-trifluoroacetic acid salt (1:2)]",100 to 1000 nM
3,"CNCCN(C)S(=O)(=O)N1C[C@H](CCCB(O)O)[C@](N)(C(=O)O)C1 (racemic) [Example 47, (racemic)-trans-3-amino-4-(3-boronopropyl)-1-(N-methyl-N-(2-(methylamino)ethyl)sulfamoyl)pyrrolidine-3-carboxylic acid, 2,2,2-trifluoroacetic acid salt (1:2)]",< 100 nM
4,"CC(C)(N)C(C)(C)NS(=O)(=O)N1C[C@H](CCCB(O)O)[C@](N)(C(=O)O)C1 (racemic) [Example 50, (racemic)-trans-3-amino-1-(N-(3-amino-2,3-dimethylbutan-2-yl)sulfamoyl)-4-(3-boronopropyl)pyrrolidine-3-carboxylic acid, 2,2,2-trifluoroacetic acid salt (1:2)]",100 to 1000 nM
5,"N=C(N)NC(=O)N1C[C@H](CCCB(O)O)[C@](N)(C(=O)O)C1 (racemic) [Example 51, (racemic)-trans-3-amino-4-(3-boronopropyl)-1-(carbamimidoylcarbamoyl)pyrrolidine-3-carboxylic acid, 2,2,2-trifluoroacetic acid salt (1:2)]",100 to 1000 nM
6,"CCN(C1CNC1)S(=O)(=O)N1C[C@H](CCCB(O)O)[C@](N)(C(=O)O)C1 (racemic) [Example 52, (racemic)-trans-3-amino-1-(N-(azetidin-3-yl)-N-ethylsulfamoyl)-4-(3-boronopropyl)pyrrolidine-3-carboxylic acid 2,2,2-trifluoroacetic acid salt (1:2)]",< 100 nM
7,"NC(=O)NS(=O)(=O)N1C[C@H](CCCB(O)O)[C@](N)(C(=O)O)C1 (racemic) [Example 53, (racemic)-trans-3-amino-4-(3-boronopropyl)-1-(N-carbamoylsulfamoyl)pyrrolidine-3-carboxylic acid 2,2,2-trifluoroacetic acid salt (1:2)]",1000 to 10000 nM
8,"N=C(N)NCCNS(=O)(=O)N1C[C@H](CCCB(O)O)[C@](N)(C(=O)O)C1 (racemic) [Example 54, (racemic)-trans-3-amino-4-(3-boronopropyl)-1-(N-(2-guanidinoethyl)sulfamoyl)pyrrolidine-3-carboxylic acid, 2,2,2-trifluoroacetic acid salt (1:2)]",100 to 1000 nM
9,"N[C@H]1CC1NS(=O)(=O)N1C[C@H](CCCB(O)O)[C@](N)(C(=O)O)C1 (relative stereo) [Example 40, (3R,4S)-3-amino-1-(N-((cis)-2-aminocyclopropyl)sulfamoyl)-4-(3-boronopropyl)pyrrolidine-3-carboxylic acid, 2,2,2-trifluoroacetic acid salt (1:2)]",100 to 1000 nM
10,"CN(CCN)S(=O)(=O)N1C[C@H](CCCB(O)O)[C@](N)(C(=O)O)C1 [Example 27, (3R,4S)-3-amino-1-(N-(2-aminoethyl)-N-methylsulfamoyl)-4-(3-boronopropyl)pyrrolidine-3-carboxylic acid, 2,2,2-trifluoroacetic acid salt (1:2)]",< 100 nM
11,"NCCNc1c(N2C[C@H](CCCB(O)O)[C@](N)(C(=O)O)C2)c(=O)c1=O [Example 28, (3R,4S)-3-amino-1-(2-((2-aminoethyl)amino)-3,4-dioxocyclobut-1-en-1-yl)-4-(3-boronopropyl)pyrrolidine-3-carboxylic acid, 2,2,2-trifluoroacetic acid salt (1:2)]",< 100 nM
12,"CN(CCN)c1c(N2C[C@H](CCCB(O)O)[C@](N)(C(=O)O)C2)c(=O)c1=O [Example 29, (3R,4S)-3-amino-1-(2-((2-aminoethyl)(methyl)amino)-3,4-dioxocyclobut-1-en-1-yl)-4-(3-boronopropyl)pyrrolidine-3-carboxylic acid, 2,2,2-trifluoroacetic acid salt (1:2)]",< 100 nM

# The next lines start with the values.
row,IC50,SMILES
1,< 100 nM,COC(=O)[C@@H](N)CNS(=O)(=O)N1C[C@H](CCCB(O)O)[C@](N)(C(=O)O)C1 (racemic) [Example 55]
2,100 to 1000 nM,N[C@@H](CNS(=O)(=O)N1C[C@H](CCCB(O)O)[C@](N)(C(=O)O)C1)C(=O)O (racemic) [Example 56]
3,< 100 nM,"CC(C)N(C1CNC1)S(=O)(=O)N1C[C@H](CCCB(O)O)[C@](N)(C(=O)O)C1 [Example 57, (3R,4S)-3-amino-1-(N-(azetidin-3-yl)-N-isopropylsulfamoyl)-4-(3-boronopropyl)pyrrolidine-3-carboxylic acid, 2,2,2-trifluoroacetic acid salt (1:2)]"
4,100 to 1000 nM,"CC(NS(=O)(=O)N1C[C@H](CCCB(O)O)[C@](N)(C(=O)O)C1)C1(N)CC1 (stereo partly drawn) [Example 58, (3R,4S)-3-amino-1-(N-(1-(1-aminocyclopropyl)ethyl)sulfamoyl)-4-(3-boronopropyl)pyrrolidine-3-carboxylic acid, 2,2,2-trifluoroacetic acid salt (1:2)]"
5,< 100 nM,"CCCN(C1CNC1)S(=O)(=O)N1C[C@H](CCCB(O)O)[C@](N)(C(=O)O)C1 [Example 59, (3R,4S)-3-amino-1-(N-(azetidin-3-yl)-N-propylsulfamoyl)-4-(3-boronopropyl)pyrrolidine-3-carboxylic acid, 2,2,2-trifluoroacetic acid salt (1:2)]"
6,< 100 nM,"CC(C)CN(C1CNC1)S(=O)(=O)N1C[C@H](CCCB(O)O)[C@](N)(C(=O)O)C1 [Example 60, (3R,4S)-3-amino-1-(N-(azetidin-3-yl)-N-isobutylsulfamoyl)-4-(3-boronopropyl)pyrrolidine-3-carboxylic acid, 2,2,2-trifluoroacetic acid salt (1:2)]"
7,< 100 nM,"CCCCN(C1CNC1)S(=O)(=O)N1C[C@H](CCCB(O)O)[C@](N)(C(=O)O)C1 [Example 61, (3R,4S)-3-amino-1-(N-(azetidin-3-yl)-N-butylsulfamoyl)-4-(3-boronopropyl)pyrrolidine-3-carboxylic acid, 2,2,2-trifluoroacetic acid salt (1:2)]"
8,< 100 nM,"N[C@@]1(C(=O)O)CN(S(=O)(=O)N(Cc2ccccc2)C2CNC2)C[C@@H]1CCCB(O)O [Example 62, (3R,4S)-3-amino-1-(N-(azetidin-3-yl)-N-benzylsulfamoyl)-4-(3-boronopropyl)pyrrolidine-3-carboxylic acid, 2,2,2-trifluoroacetic acid salt (1:2)]"
9,< 100 nM,"N[C@@]1(C(=O)O)CN(S(=O)(=O)N(CC2CC2)C2CNC2)C[C@@H]1CCCB(O)O [Example 63, (3R,4S)-3-amino-1-(N-(azetidin-3-yl)-N-(cyclopropylmethyl)sulfamoyl)-4-(3-boronopropyl)pyrrolidine-3-carboxylic acid, 2,2,2-trifluoroacetic acid salt (1:2)]"
10,< 100 nM,"N[C@@]1(C(=O)O)CN(S(=O)(=O)N(c2ccccc2)C2CNC2)C[C@@H]1CCCB(O)O [Example 64, (3R,4S)-3-amino-1-(N-(azetidin-3-yl)-N-phenylsulfamoyl)-4-(3-boronopropyl)pyrrolidine-3-carboxylic acid, 2,2,2-trifluoroacetic acid salt (1:2)]"
11,1000 to 10000 nM,"CCN(CC1(N)CC1)S(=O)(=O)N1C[C@H](CCCB(O)O)[C@](N)(C(=O)O)C1 [Example 65, (3R,4S)-3-amino-1-(N-((1-aminocyclopropyl)methyl)-N-ethylsulfamoyl)-4-(3-boronopropyl)pyrrolidine-3-carboxylic acid, 2,2,2-trifluoroacetic acid salt (1:2)]"
12,< 100 nM,"N[C@@]1(C(=O)O)CN(S(=O)(=O)N(CC(F)(F)F)C2CNC2)C[C@@H]1CCCB(O)O [Example 66, (3R,4S)-3-amino-1-(N-(azetidin-3-yl)-N-(2,2,2-trifluoroethyl)sulfamoyl)-4-(3-boronopropyl)pyrrolidine-3-carboxylic acid, 2,2,2-trifluoroacetic acid salt (1:2)]"
13,< 100 nM,"NCCN(CC1CC1)S(=O)(=O)N1C[C@H](CCCB(O)O)[C@](N)(C(=O)O)C1 [Example 67, (3R,4S)-3-amino-1-(N-(2-aminoethyl)-N-(cyclopropylmethyl)sulfamoyl)-4-(3-boronopropyl)pyrrolidine-3-carboxylic acid, 2,2,2-trifluoroacetic acid salt (1:2)]"
14,< 100 nM,"NC1(CN(CC2CC2)S(=O)(=O)N2C[C@H](CCCB(O)O)[C@](N)(C(=O)O)C2)CC1 [Example 68, (3R,4S)-3-amino-1-(N-((1-aminocyclopropyl)methyl)-N-(cyclopropylmethyl)sulfamoyl)-4-(3-boronopropyl)pyrrolidine-3-carboxylic acid, 2,2,2-trifluoroacetic acid salt (1:2)]"
15,< 100 nM,"NC1CC1N(CC1CC1)S(=O)(=O)N1C[C@H](CCCB(O)O)[C@](N)(C(=O)O)C1 (stereo partly drawn) [Example 69, (3R,4S)-3-amino-1-(trans-N-(2-aminocyclopropyl)-N-(cyclopropylmethyl)sulfamoyl)-4-(3-boronopropyl)pyrrolidine-3-carboxylic acid, 2,2,2-trifluoroacetic acid salt (1:2)]"
16,< 100 nM,"N[C@@]1(C(=O)O)CN(S(=O)(=O)N(CC2CC2)[C@@H]2CCNC2)C[C@@H]1CCCB(O)O [Example 70, (3R,4S)-3-amino-4-(3-boronopropyl)-1-(N-(cyclopropylmethyl)-N-((R)-pyrrolidin-3-yl)sulfamoyl)pyrrolidine-3-carboxylic acid, 2,2,2-trifluoroacetic acid salt (1:2)]"
